The numbers were not newly measured in US8372797B2, “Treatment of erectile dysfunction by stem cell therapy” (Creative Medical Health, Inc., priority 2006, dated 2013), which cites them from elsewhere.

Data set [1] deals with hypercholesterolemic rabbits. The note with it: systemic administration.
Data set [2] has as its system diabetic rats. The following applies: intracavernous, gelatin microbeads.
In data set [3] the test system is hypercholesterolemic rabbits. The note with it: two 2.5 microgram doses separated by a 3-week interval into corporal tissue.
For data set [4], the system named is model of rat diabetes associated ED. The note with it: exogenous administration.

Take “bFGF: basic fibroblast growth factor, a known inducer of angiogenesis”: the “histological changes in the corpus cavernosum” value in data set [1] was “favorable histological changes”. In data set [2], the erectile function entry was “protection of erectile function from diabetes mediated onset”. In data set [3], the “corporal relaxation and ability to generate NO” value is “increase corporal relaxation in response to chemical stimuli”.
For superoxide dismutase, the erectile function result in data set [4] is “increase erectile function”.
